Laboratory results published in US20260071220A1, “CONJUGATE OF NUCLEOTIDE ANALOG-CONTAINING DOUBLE-STRANDED RNAI ANALOG” (BaseCure Therapeutics LLC, priority 2022, published 2026).

Tests used:
Conditions in all cases: 24 h, positive control
[1] = tested on: HEK BLUE hTLR7; assay: Cell activity detection (CellTiter-Glo) in hTLR7 cells; format: cell-based, human
Description: (§1) 1) The conjugate of the present invention was diluted to a concentration that was 20 times a final concentration, the diluted conjugate was mixed with RNAiMAX-OPTI MEM (RNAiMAX:OPTI MEM=3:47) at a ratio of 1:1 and incubated for 15 min at room temperature.
(§2) 2) 10 μL of incubated conjugate of the present invention was added into a corresponding cell plate, with 10 concentrations in total, a maximum concentration being 200 nM, and double duplicated wells for each concentration.
(§3) 4) 90 μL of cells were seeded into a 96-well plate with the conjugate at the density of 50,000 cells/well.
(§4) 5) The conjugate of the present invention and the cells were co-incubated for 24 h in an incubator under the conditions of 37° C. and 5% CO2.
(§5) 8) Cell activity detection: the operation was carried out according to the method in the Celltiter-Glo specification, and a chemiluminescence signals (RLU) were detected using the multifunctional microplate reader Flexstation III.
(§6) Compound activity: the OD650 values were analyzed using GraphPad Prism software, and a dose effect curve of the compound was fit, and the EC50 value of the compound was calculated. Cell activity detection: the calculation formula of cell activity % was as follows. The cell activity % value was analyzed using GraphPadPrism software, the dose effect curve of the compound was fit, and the CC50 value of the compound on cell was calculated.

[2] = tested on: HEK BLUE hTLR8; assay: Cell activity detection (CellTiter-Glo) in hTLR8 cells; format: cell-based, human
Description: as §1, §2, §3, §4, §5, §6

[3] = tested on: HEK BLUE hTLR3; assay: Cell activity detection (CellTiter-Glo) in hTLR3 cells; format: cell-based, human
Description: as §1, §2, §3, §4, §5, §6

[4] = molecular target: T1, hTLR3 (Homo sapiens, UniProt O15455); assay: Agonistic activity on hTLR3 cells (HEK BLUE, QUANTI-Blue OD650); format: cell-based
T1 construct: host or cells: HEK BLUE hTLR3 (HEK293-derived SEAP reporter line)
T1 sequence (O15455 24-904): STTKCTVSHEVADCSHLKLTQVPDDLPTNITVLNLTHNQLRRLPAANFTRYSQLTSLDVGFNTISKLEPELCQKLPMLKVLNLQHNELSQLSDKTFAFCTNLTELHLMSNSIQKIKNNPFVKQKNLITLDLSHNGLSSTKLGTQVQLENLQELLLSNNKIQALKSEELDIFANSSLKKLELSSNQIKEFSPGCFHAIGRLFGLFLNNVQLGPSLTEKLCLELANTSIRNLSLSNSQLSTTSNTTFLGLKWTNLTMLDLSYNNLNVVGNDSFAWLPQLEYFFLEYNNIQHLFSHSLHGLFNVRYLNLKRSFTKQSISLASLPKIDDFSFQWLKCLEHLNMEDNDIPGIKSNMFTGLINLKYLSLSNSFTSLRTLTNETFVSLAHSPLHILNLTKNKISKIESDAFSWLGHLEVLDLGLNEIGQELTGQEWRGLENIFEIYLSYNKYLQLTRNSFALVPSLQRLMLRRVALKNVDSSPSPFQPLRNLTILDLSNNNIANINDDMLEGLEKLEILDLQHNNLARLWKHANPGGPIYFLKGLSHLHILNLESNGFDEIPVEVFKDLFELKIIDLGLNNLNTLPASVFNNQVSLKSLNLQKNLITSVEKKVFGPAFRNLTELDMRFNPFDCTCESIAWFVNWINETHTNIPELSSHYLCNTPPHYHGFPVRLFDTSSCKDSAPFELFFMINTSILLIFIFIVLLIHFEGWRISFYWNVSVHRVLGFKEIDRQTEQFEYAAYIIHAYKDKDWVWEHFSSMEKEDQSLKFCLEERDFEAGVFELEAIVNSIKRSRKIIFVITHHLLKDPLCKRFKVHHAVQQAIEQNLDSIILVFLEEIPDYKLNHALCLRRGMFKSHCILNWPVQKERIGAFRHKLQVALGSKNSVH
Description: as §1, §2
10 μL of 0.5 μM BLOCK-iT™ Alexa Fluor® Red Fluorescent Control was added into 2 transfection positive control wells.
as §3, §4
7) Compound activity detection: 20 μL of cell supernatant was taken from each well and added into an experimental plate containing 180 μL of QUANTI-Blue™ reagent and then incubated for 1 h at 37° C., followed by detecting an absorbance values at 650 nm (OD650) using the multifunctional microplate reader Flexstation III.
as §6

Compound `CCOCc1nc2c(N)nc3ccccc3c2n1CC(C)(C)O` [Conjugate R848, R848, reference compound] has a CC50 [1] greater than 10 µg/mL and a CC50 [2] greater than 10 µg/mL.
“Poly (I:C) HMW [Poly(I:C) HMW, reference compound]” gave a CC50 [3] greater than 2 µg/mL and an EC50 [4] of 0.05943 µg/mL.
